Read-outs that look alike come from different tables or passages of the source. Non-standard residues stand in square brackets, D forms with d. Residues, ends and D or L forms follow the SMILES beside them.
Key:
[1] = system: total lipids extracted from H. pylori (ATCC 43504); assay: Lipid insertion assay (lipid monolayer, critical pressure of insertion); design: species or system biophysical; conditions: peptide 1 µM, PBS pH 7.4, from the line fits of Figure 4
Method: Peptide-lipid interaction was measured using reconstituted lipid monolayer at the air-water interface as previously described. Total lipids were extracted from overnight cultures of H. pylori (ATCC 43504) using Folch extraction procedure as previously described. Extracted total lipids were dried, resolubilized in chloroform:methanol (2:1, v/v) and stored at -20 °C under nitrogen. For peptide-lipid interaction assay, total lipid extract was spread using a 50 μL Hamilton's syringe at the surface of 800 μL of sterile PBS creating a lipid monolayer at the air-water interface. Lipids were added until the surface pressure reached the desired value. […] The variation of the surface pressure caused by peptide injection was then continuously monitored using a fully automated microtensiometer (μTROUGH SX, Kibron Inc., Helsinki, Finland) until reaching equilibrium (maximal surface pressure increase being usually obtained after 15-25 min). […] Variation of surface pressure was plotted as a function of initial surface pressure and the critical pressure of insertion of each peptide into H. pylori lipids was calculated as the theoretical value of initial pressure of lipid monolayer not permissive to peptide insertion, i.e., giving a variation of pressure equal to 0 mN/m.

H. pylori (ATCC 43504) [2] = system: H. pylori (ATCC 43504)
Method: (§1) Briefly, after the growth of H. pylori in liquid culture the optical density (OD) of the bacterial suspensions were read at 600 nm and adjusted to one. Stock solutions of the peptides at 1 mM were prepared in sterile water. Bacteria were diluted in medium to reach bacterial density around 10^5 bacteria/mL. One-hundred microliters per well of bacterial suspension were then added into sterile polypropylene 96-well microplates (Greiner BioOne, Paris, France) and exposed to increasing concentrations of peptides (from zero to 100 µM, 1:2 serial dilution). […] Plates were incubated at 37 °C for 24 h for H. pylori (ATCC 43504) and for 4–7 days for the clinical strains. H. pylori was tested in microaerophilic conditions generated using micro-anaerobic BD GasPak system. At the end of the incubation, OD600nm was measured using microplate reader (Synergy Mx, Biotek, Colmar, France). The MIC was defined as the lowest concentration of drug that inhibited visible growth of the organism. Experiments were conducted in independent triplicate (n = 3).
(§2) It is also rich with mucus to protect it from the aggressive acidity. For this reason, the impact of mucins and pepsin on the activity of the peptides was investigated. The impact of the gastric mucins on peptide activity was evaluated using a combination of commercial porcine stomach mucins MUC2 and MUC3 (Sigma–Aldrich) at a final concentration of 1 mg/mL sterilized using 0.2 µm filter. This concentration was used based on the estimated concentration of mucins present in the mucus in vivo [27]. The effect of mucins on peptides activity was evaluated by MIC and by time killing assay as explained below. The resistance of the peptides to pepsin was tested as previously described with some changes. […] This concentration was used since it corresponds the pepsin concentration in the stomach (0.5–1 mg/mL).

H. pylori (ATCC 43504) [3] = assay: MIC after digestion by pepsin (resistance to pepsin); conditions: ATCC 43504, 4 h, pH 2
Method: as §1, §2

H. pylori (ATCC 43504) [4] = conditions: ATCC 43504, 24 h
From the text: H. pylori used in this study were either the reference strain obtained from the American Type Culture Collection (ATCC 43504) or clinical strains received frozen from our collaborator Josette Raymond from Hospital Cochin, Paris. Strains were obtained from patients who underwent a gastroendoscopy performed for various gastro-intestinal disorders according to the recommendations of Haute Autorité de Santé (HAS). During the endoscopy, biopsy samples were taken from antrum and corpus. Samples were then crushed, and the material was used for bacterial culture and molecular methods. An antibiogram was performed and strains were then frozen at -80 °C in a broth with 10% glycerol. Bacteria were cultured as previously described. Briefly, H. pylori (ATCC 43504) was cultured in brain heart infusion (BHI) and incubated at 37 °C for 16 h in microaerophilic condition in BD GasPak EZ using BD GasPak EZ CampyPak container system sachets (BD Biosciences, Le Pont-de-Claix, France). For clinical strains, a sample from the frozen bacteria was streaked on Blood Agar (Base) (Sigma-Aldrich, Illkirch-Graffenstaden, France) supplemented with 5% horse defibrinated blood (Fisher Scientific, Les Ulis, France) and 2% isovitale-X (Fisher Scientific, Illkirch-Graffenstaden, France). The petri dishes were then incubated at 37 °C for 4–7 days in microaerophilic condition. Then, a colony is transferred to 3 mL Mueller Hinton (MH) broth supplemented with 10% fetal bovine serum (FBS) and 2% isovitale-X. The cultures were then incubated for 4–7 days until the bacteria grow before further experiments.
as §1

N87 cells = assay: In vitro toxicity assay using human gastric cells (resazurin); type: cell-based; conditions: for IC50: 48 h
Method: [26] Human gastric cells N87 (ATCC CRL-5822) were cultured in RPMI-1640 medium supplemented with 10% fetal calf serum (FCS), 1% L-glutamine and 1% antibiotics (all from Invitrogen, Carlsbad, CA, USA) and were routinely seeded onto 25 cm^2 flasks maintained in a 5% CO2 incubator at 37 °C. For the toxicity assay, cells grown on 25 cm^2 flasks were detached using trypsin–EDTA solution (from Thermofisher), counted using Mallasez counting chamber and seeded into 96-well cell culture plates (Greiner Bio-one) at approximately 10^4 cells per well. The cells were left to grow for 48–72 h at 37 °C in a 5% CO2 incubator until they reached confluence. Plates were then aspirated and increasing concentrations of peptides were added to the cells for 48 h at 37 °C in a 5% CO2 incubator, volume of water corresponding to the volume of peptides being used as negative control. At the end of the incubation, wells were aspirated, and cell viability was evaluated using resazurin-based in vitro toxicity assay kit (Sigma-Aldrich) following manufacturer’s instructions. Briefly, resazurin stock solution was diluted 1:10 in sterile PBS containing calcium and magnesium (PBS^++, pH 7.4) and empty wells were filled with 100 µL of the diluted solution. After 4 h incubation at 37 °C, fluorescence intensity was measured using microplate reader (Synergy Mx, Biotek) with an excitation wavelength of 530 nm and an emission wavelength of 590 nm. The fluorescence values were normalized by the controls and expressed as percent viability.

H. pylori (ATCC 43504) [5] = system: H. pylori (ATCC 43504); remark: listed apart in the source
Method: The bactericidal activity of peptides was assessed using the time kill assay as previously described with some modifications. Briefly, overnight liquid culture of H. pylori (ATCC 43504) was prepared and an optical density measurement (OD600nm) was taken to provide an estimation of cell numbers in the culture. Bacterial suspension was then centrifuged at 3000 rpm for 5 min and the bacterial pellet was then resuspended in sterile PBS pH6 at approximatively 10^7 CFU/mL. The pH of PBS was changed from 7 to 6 with HCl to mimic the micro-environment surrounding H. pylori in the stomach. Indeed, although the lumen of the stomach is around 1–2, H. pylori is able, through the activity of its urease, to create a local micro-environment around it of pH 6 [31]. In addition to PBS pH 6, the time kill assay was also performed in PBS pH 6 containing a mixture of porcine stomach mucins MUC2 and MUC3 (at 1 mg/mL, final concentration) or in the presence of human gastric cells N87 producing human mucus. In that particular case, N87 cells were seeded onto 96-wells plates and left to grow for 48–72 h until they reached confluence. At that time, wells were aspirated and bacterial suspension in PBS pH 6 were added to the wells. In all cases, resuspended bacteria (200 µL) were treated with peptides or the conventional antibiotic amoxicillin at a final concentration corresponding to five times their MIC. Bacteria were then incubated in micro-aerobic conditions at 37 °C using GasPak units. […] The petri dishes were then incubated 16 h at 37 °C in microaerophilic conditions before counting of growing colonies. The number of surviving bacteria was calculated using the number of observed colonies and the dilution factor. The experiment was done in triplicate.

Row | MIC in the Presence of mucins (H. pylori (ATCC 43504) [2]; ATCC 43504, 24 h) | increase of MIC in the presence of mucins (H. pylori (ATCC 43504) [2]; MUC2 and MUC3 at 1 mg/mL versus no mucins) | MIC after Digestion by Pepsin (H. pylori (ATCC 43504) [3]) | MIC on H. pylori (ATCC 43504) (H. pylori (ATCC 43504) [4]) | SMILES | critical pressure of insertion (CPI) [1] | increase in toxicity to human gastric cells compared to temporin-SHa (N87 cells) | IC50 (N87 cells) | killing (H. pylori (ATCC 43504) [5]; 20 min, PBS pH 6, 5-times MIC) | killing (H. pylori (ATCC 43504) [5]; 3 h (180 min), PBS pH 6, 5-times MIC) | killing (H. pylori (ATCC 43504) [5]; 3 h, absence or presence of mucus, 5-times MIC) | killing (H. pylori (ATCC 43504) [5]; 9 h (540 min), 5-times MIC)
1 | 6.25 µM | two | >50 µM | 3.12 µM | CC[C@H](C)[C@H](NC(=O)CNC(=O)[C@H](CO)NC(=O)[C@H](CC(C)C)NC(=O)[C@@H](N)Cc1ccccc1)C(=O)N[C@H](C(=O)N[C@H](C)C(=O)N[C@@H](CCSC)C(=O)N[C@@H](CC(C)C)C(=O)NCC(=O)N[C@@H](CCCCN)C(=O)N[C@@H](CC(C)C)C(=O)N[C@@H](Cc1ccccc1)C(N)=O)C(C)C [NST3, H-Phe^1-Leu^2-Ser^3-Gly^4-Ile^5-Val^6-D-Ala^7-Met^8-Leu^9-Gly^10-Lys^11-Leu^12-Phe^13-NH2] (H-FLSGIV[dA]MLGKLF-NH2) | 35.73 mN/m | around 3 fold | 520 ± 148 µM | – | – | – | –
2 | – | – | – | 6.25 to 12.5 µM | CC[C@H](C)[C@H](NC(=O)[C@@H](C)NC(=O)[C@H](CO)NC(=O)[C@H](CC(C)C)NC(=O)[C@@H](N)Cc1ccccc1)C(=O)N[C@H](C(=O)N[C@H](C)C(=O)N[C@@H](CCSC)C(=O)N[C@@H](CC(C)C)C(=O)NCC(=O)N[C@@H](CCCCN)C(=O)N[C@@H](CC(C)C)C(=O)N[C@@H](Cc1ccccc1)C(N)=O)C(C)C [NST4, H-Phe^1-Leu^2-Ser^3-D-Ala^4-Ile^5-Val^6-D-Ala^7-Met^8-Leu^9-Gly^10-Lys^11-Leu^12-Phe^13-NH2] (H-FLS[dA]IV[dA]MLGKLF-NH2) | 39.12 mN/m | around 5 fold | 306 ± 48.4 µM | – | – | – | –
3 | – | – | – | 3.12 µM | CC[C@H](C)[C@H](NC(=O)CNC(=O)[C@H](CO)NC(=O)[C@H](CC(C)C)NC(=O)[C@@H](N)Cc1ccccc1)C(=O)N[C@H](C(=O)N[C@H](C)C(=O)N[C@@H](CCSC)C(=O)N[C@@H](CC(C)C)C(=O)N[C@H](C)C(=O)N[C@@H](CCCCN)C(=O)N[C@@H](CC(C)C)C(=O)N[C@@H](Cc1ccccc1)C(N)=O)C(C)C [NST6, H-Phe^1-Leu^2-Ser^3-Gly^4-Ile^5-Val^6-D-Ala^7-Met^8-Leu^9-D-Ala^10-Lys^11-Leu^12-Phe^13-NH2] (H-FLSGIV[dA]ML[dA]KLF-NH2) | 44.43 mN/m | around 15 fold | 104 ± 9.3 µM | – | – | – | –

The remaining lines, values behind:

Row | SMILES | MIC in the Presence of mucins (H. pylori (ATCC 43504) [2]; ATCC 43504, 24 h) | increase of MIC in the presence of mucins (H. pylori (ATCC 43504) [2]; MUC2 and MUC3 at 1 mg/mL versus no mucins) | MIC after Digestion by Pepsin (H. pylori (ATCC 43504) [3]) | MIC on H. pylori (ATCC 43504) (H. pylori (ATCC 43504) [4]) | critical pressure of insertion (CPI) [1] | increase in toxicity to human gastric cells compared to temporin-SHa (N87 cells) | IC50 (N87 cells) | killing (H. pylori (ATCC 43504) [5]; 20 min, PBS pH 6, 5-times MIC) | killing (H. pylori (ATCC 43504) [5]; 3 h (180 min), PBS pH 6, 5-times MIC) | killing (H. pylori (ATCC 43504) [5]; 3 h, absence or presence of mucus, 5-times MIC) | killing (H. pylori (ATCC 43504) [5]; 9 h (540 min), 5-times MIC)
4 | CC[C@H](C)[C@H](NC(=O)[C@@H](C)NC(=O)[C@H](CO)NC(=O)[C@H](CC(C)C)NC(=O)[C@@H](N)Cc1ccccc1)C(=O)N[C@H](C(=O)NCC(=O)N[C@@H](CCSC)C(=O)N[C@@H](CC(C)C)C(=O)N[C@H](C)C(=O)N[C@@H](CCCCN)C(=O)N[C@@H](CC(C)C)C(=O)N[C@@H](Cc1ccccc1)C(N)=O)C(C)C [NST7, H-Phe^1-Leu^2-Ser^3-D-Ala^4-Ile^5-Val^6-Gly^7-Met^8-Leu^9-D-Ala^10-Lys^11-Leu^12-Phe^13-NH2] (H-FLS[dA]IVGML[dA]KLF-NH2) | – | – | – | – | 33 mN/m | around 15 fold | 84.7 ± 9 µM | – | – | – | –
5 | CC1(C)S[C@@H]2[C@H](NC(=O)[C@H](N)c3ccc(O)cc3)C(=O)N2[C@H]1C(=O)O [amoxicillin, reference compound] | – | – | – | – | – | – | – | 9% | 34% | 31.5–55% | 75%

Source: publication PMC6843786, “Temporin-SHa and Its Analogs as Potential Candidates for the Treatment of Helicobacter pylori” (Biomolecules, 2019)
